What is called Cmax is the maximum level reached in the sampled fluid or tissue. By half-life is commonly meant how long it takes for the measured level to halve. High values mean slow loss, low ones fast loss. Usually Tmax stands for the time from dosing to the highest level.

The results in this text go back to patent US10723704B2, “Pyrazolone derivatives as nitroxyl donors” (Cardioxyl Pharmaceuticals, Inc., priority 2015, dated 2020).

Each structure is given as a SMILES string. Where two headings read alike, the source gives them in different places.

This data set can be described thus: Pharmacokinetic activity in rats: IV bolus and oral gavage; plasma, brain and CSF levels by LC-MS/MS. Particulars: rat; for Tmax: PO administration of Compound 6, 10 mg/kg, read-out: median Tmax; for presence in brain samples: levels believed due to contamination of brain samples with blood. Format: in vivo, Male Sprague-Dawley rats. The method, then:
Male Sprague-Dawley rats (n=3/group) were assigned to Groups 1 to 6. Group 1 was administered an intravenous bolus dose of 1 mg/kg a test compound in 30% polyethyleneglycol-200 (PEG-200): 10% DMSO in saline. Serial samples of blood were collected at 0.05, 0.15, 0.75, 1.5, 3, 6, 10 and 24 hours via an implanted jugular vein catheter. Groups 2-6 received oral gavage doses of a test compound, formulated in 100% PEG300 (10 mg/kg). Rats from groups 2-6 were sacrificed at 0.25, 2, 6, 10 or 24 hours post-dose and blood samples (1 mL via cardiac puncture) were collected into chilled tubes containing K2EDTA as the anticoagulant. CSF and brain tissue were also collected at these time points. Blood samples were immediately centrifuged at 3000 g for 5 minutes under refrigerated conditions (4° C.). Plasmas and CSF samples were mixed with an aqueous solution of ascorbic acid to reach a final concentration of 2%. Brain, plasma and CSF samples were stored at −80° C. until analysis. The test compound and by-product concentrations were determined by LC-MS/MS. The eluent from a reversed-phase gradient (water/acetonitrile both containing 0.1% v/v formic acid) on a 1290 UHPLC system (Agilent Technologies, Stockport, UK) was introduced by positive electrospray ionization into an API6500 mass spectrometer (AB Sciex, Warrington, UK) and analyzed by multiple reaction monitoring (MRM). The lower limit of quantification (LLOQ) was in the range 1-10 ng/mL for the test compound and by-products. The mean plasma concentration-time data for each group were used to calculate pharmacokinetic parameters of the test compound and by-products with the software program Phoenix WinNonlin version 6.4 (Certara L. P., Princeton, N.J.).

Where [1] appears, read: male, Sprague-Dawley, plasma, PO administration of Compound 6, 10 mg/kg in 100% PEG300, mean, read-out: plasma Cmax.
Setting [2] is: male, Sprague-Dawley, IV bolus 1 mg/kg, plasma.

On to `Cc1c(-c2ccc(S(C)(=O)=O)cc2)nn(CC(=O)O)c1O` [2-[5-hydroxy-3-(4-methanesulfonylphenyl)-4-methyl-1H-pyrazol-1-yl]acetic acid], for which the “levels in plasma, brain and CSF (compared with Compound 6a)” value (after dosing Compound 6) is reported as “much lower levels”.

As to `CCOC(=O)CN1N=C(c2ccc(S(C)(=O)=O)cc2)C(C)(NO)C1=O` (stereo not shown) [Compound 6, Ethyl 2-[4-(hydroxyamino)-3-(4-methanesulfonylphenyl)-4-methyl-5-oxo-4,5-dihydro-1H-pyrazol-1-yl]acetate], the “presence in brain samples” value is recorded as “Traces”. Also, the Kp (male, Sprague-Dawley, CSF, PO 10 mg/kg, 0.25-2 h, read-out: mean CSF:plasma ratio) stood at 4. Moreover, under “male, Sprague-Dawley, CSF, PO Compound 6 10 mg/kg, at 0.25 h, read-out: Cmax in CSF”, the Cmax stood at 26 ± 18 ng/mL. Further, for the setting “male, Sprague-Dawley, brain, PO 10 mg/kg, 0.25 h, read-out: mean brain:plasma ratio”, the Kp at 0.25 h was found to be 1.1. For the same compound, the Cmax (male, Sprague-Dawley, brain, PO Compound 6 10 mg/kg, at 0.25 h, read-out: Cmax in brain) turned out to be 8 ± 2 ng/g. Where the note is “male, Sprague-Dawley, plasma, IV bolus 1 mg/kg in 30% PEG-200:10% DMSO in saline”, this compound yielded a clearance of 41 ± 2 mL/min/kg. In addition, the Vd (male, Sprague-Dawley, plasma, IV bolus 1 mg/kg, read-out: volume of distribution) stood at 1.1 ± 0.1 L/kg. Also, the Cmax under setting [1] amounted to 8 ng/mL. Under setting [2], the C0 stood at 110 ± 10 ng/mL and the half-life was 24 ± 0.6 min. Moreover, under “male, Sprague-Dawley, plasma”, the Tmax came out at 15 min. Also, under “PO 10 mg/kg”, the “absorption after oral dosing” value was “very well absorbed”. The metabolism result (after oral dosing) was “rapidly metabolized at the ester function”.

On to `CC1(NO)C(=O)N(CC(=O)O)N=C1c1ccc(S(C)(=O)=O)cc1` (stereo not shown) [Compound 6a, 2-[4-(hydroxyamino)-3-(4-methanesulfonylphenyl)-4-methyl-5-oxo-4,5-dihydro-1H-pyrazol-1-yl]acetic acid], for which the “presence in brain samples” value is reported as “Traces”. Moreover, the Cmax (male, Sprague-Dawley, CSF, PO Compound 6 10 mg/kg, at 2 h, read-out: Cmax in CSF) came to 107 ± 33 ng/mL. Moreover, the Cmax (male, Sprague-Dawley, brain, PO Compound 6 10 mg/kg, at 2 h, read-out: Cmax in brain) was determined as 85 ± 22 ng/g. The Cmax under setting [1] is 5220 ng/mL. Besides, where the note is “male, Sprague-Dawley, plasma”, the Tmax is 15 min. Besides, the amount in brain entry (PO Compound 6 10 mg/kg) was “low”. Also, the “plasma concentration relative to parent compound (Compound 6)” value (PO Compound 6 10 mg/kg, at Cmax (0.25 h)) amounted to 700 fold. Besides, the “plasma concentration relative to parent compound (Compound 6)” value (PO Compound 6 10 mg/kg, by 2 h) turned out to be 2000 fold. Also, for the setting “after dosing Compound 6”, the “share among drug-related components observed in the samples” value is reported as “major drug-related component”. Besides, the distribution entry (after oral dosing of Compound 6) was “restricted to the periphery”.

Consider `CCOC(=O)Cn1nc(-c2ccc(S(C)(=O)=O)cc2)c(C)c1O` [ethyl 2-[5-hydroxy-3-(4-methanesulfonylphenyl)-4-methyl-1H-pyrazol-1-yl]acetate], for which the “levels in plasma, brain and CSF (compared with Compound 6a)” value (after dosing Compound 6) was “much lower levels”.
